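96-well plates; 48 h exposure; 5 concentrations. Endpoints by linear interpolation between flanking doses. Not reached: highest tested concentration assigned. At the GI50, growth is halved. TGI: concentration producing complete growth inhibition.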
Legend:
Test in all cases: NCI-60 cell line screen, 48 h
[1] = test system: DMS 273 small cell lung
[2] = test system: U251 CNS
[3] = test system: SF-539 CNS
[4] = test system: SF-268 CNS
[5] = test system: SN12C renal
[6] = test system: LXFL 529 NSCLC
[7] = test system: SK-MEL-2 melanoma
[8] = test system: T-47D breast
[9] = test system: MDA-MB-435

| Compound | TGI [1] | TGI [2] | TGI [3] | TGI [4] | TGI [5] | TGI [6] | TGI [7] | TGI [8] | TGI [9] | GI50 [1] | GI50 [2] | GI50 [3] | GI50 [4] | GI50 [5] | GI50 [6] | GI50 [7] | GI50 [8] | GI50 [9] |
| --- | --- | --- | --- | --- | --- | --- | --- | --- | --- | --- | --- | --- | --- | --- | --- | --- | --- | --- |
| CCCCOC(=O)NC(=O)c1cn(C2CCCCC2)c(=O)[nH]c1=O | > 100 µM | 76.1 µM | 37.9 µM | > 100 µM | > 100 µM | 93 µM | > 100 µM | – | – | – | – | – | – | – | – | – | – | – |
| Clc1ccc(-c2c(C3=NCCCN3)nnn2-c2ccc(Cl)cc2)cc1 | > 100 µM | > 75.8 µM | 67.5 µM | > 83.2 µM | > 100 µM | > 83.3 µM | 34.6 µM | > 59.8 µM | 35.9 µM | – | – | – | – | – | – | – | – | – |
| N.N.O=C([O-])P(=O)([O-])[O-].[Na+].[Pt+4] | > 100 µM | > 100 µM | > 100 µM | > 100 µM | > 100 µM | > 100 µM | > 100 µM | – | – | > 100 µM | > 100 µM | > 100 µM | > 100 µM | > 100 µM | > 100 µM | > 100 µM | – | – |
| Cc1ccc2c(c1)CN(C(=O)CCC(=O)OCc1ccccc1)c1ccc(C)cc1CN2C(=O)CCC(=O)OCc1ccccc1 | > 100 µM | > 100 µM | > 100 µM | > 100 µM | > 100 µM | > 100 µM | > 100 µM | > 100 µM | > 100 µM | – | – | – | – | – | – | – | – | – |
| c1cc2c(ncc3cscc32)s1 | > 100 µM | > 100 µM | > 100 µM | > 100 µM | > 100 µM | > 100 µM | > 100 µM | – | > 100 µM | – | – | – | – | – | – | – | – | – |
| CCO/N=C(/N)c1ncn(Cc2ccccc2)c1NCC(OCC)OCC | > 100 µM | > 100 µM | > 100 µM | > 100 µM | > 100 µM | > 100 µM | > 100 µM | – | – | – | – | – | – | – | – | – | – | – |
| Cc1[nH]c2ccccc2c1C1Cc2ccccc2N1C(=O)/C(Cl)=C/c1ccccc1 (stereo unspecified) | > 100 µM | > 100 µM | > 100 µM | > 100 µM | > 100 µM | > 100 µM | > 100 µM | – | – | – | – | – | – | – | – | – | – | – |
| CCOc1ccc2c(c1)[n+]([O-])c(-c1nc3ccccc3s1)c(N)[n+]2[O-] | > 100 µM | > 100 µM | > 100 µM | > 100 µM | > 100 µM | > 100 µM | > 100 µM | – | – | – | – | – | – | – | – | – | – | – |
| CS(=O)(=O)c1cc(=O)c2ccccc2s1 | 20.7 µM | 37.6 µM | 27.6 µM | 32.1 µM | 22.2 µM | 3.02 µM | 30.4 µM | 9.41 µM | 24.8 µM | – | – | – | – | – | – | – | – | – |
| N#C/C(=C\c1cc2ccccc2c2ccccc12)c1ccccc1 | 8.73 µM | 36.8 µM | 19.8 µM | > 53.9 µM | > 95.8 µM | > 100 µM | 15.4 µM | – | – | – | – | – | – | – | – | – | – | – |
| OC/C=C(\I)CCCOCOCc1ccccc1 | 44.4 µM | 64 µM | > 100 µM | > 100 µM | > 100 µM | > 100 µM | 47.7 µM | – | – | – | – | – | – | – | – | – | – | – |
| COc1ccc(/C(Cl)=C(\C=O)c2ccc([N+](=O)[O-])cc2)cc1 | 58.7 µM | 19.4 µM | 32.2 µM | 92.3 µM | 49.1 µM | > 27.6 µM | 41.3 µM | – | – | – | – | – | – | – | – | – | – | – |
| CC(C)c1ccc(C(c2ccc(OCC(=O)O)cc2)c2ccc(C(C)C)cc(=O)c2O)c(O)c(=O)c1 | 11.2 µM | 24.9 µM | 31.3 µM | – | 24.3 µM | > 100 µM | – | – | – | – | – | – | – | – | – | – | – | – |
| COC(=O)C(=O)C(C(=O)C=C(C)C)C(=O)C(=O)Nc1ccc(C)cc1C (stereo unspecified) | > 100 µM | > 100 µM | > 100 µM | > 100 µM | > 100 µM | > 100 µM | > 100 µM | – | – | – | – | – | – | – | – | – | – | – |
| CC(C)N1CN(C(C(=O)N[C@@H]2C(=O)N3C2SC(C)(C)C3C(=O)O)c2ccccc2)CSC1=S (stereo partly specified) | > 100 µM | > 100 µM | > 100 µM | > 100 µM | > 100 µM | > 100 µM | > 100 µM | – | – | – | – | – | – | – | – | – | – | – |
| CCc1ccc(Nc2ccc([N+](=O)[O-])cc2[N+](=O)[O-])cc1 | > 100 µM | > 100 µM | > 100 µM | – | – | > 100 µM | > 100 µM | – | – | – | – | – | – | – | – | – | – | – |
| COc1ccc(/C=C\c2cc(OC)c(OC)c(OC)c2)cc1OC(=O)NCCN(C)C | 0.000109 µM | – | 0.00328 µM | – | – | – | – | – | < 0.0001 µM | – | – | – | 0.0336 µM | – | – | – | – | – |
| Fc1ccc(C2SCc3nc4ccccc4n32)cc1Cl (stereo unspecified) | – | 44.6 µM | 43.8 µM | > 100 µM | 35.7 µM | 57.8 µM | – | – | – | – | – | – | – | – | – | – | – | – |
| CC1=N/C(=C\c2cccc([N+](=O)[O-])c2)C(=O)O1 | – | > 100 µM | > 100 µM | > 100 µM | > 100 µM | > 100 µM | > 100 µM | – | – | – | – | – | – | – | – | – | – | – |
| Cc1nc2ccccc2c(=O)n1-c1ccccc1F | > 100 µM | > 100 µM | > 100 µM | > 100 µM | > 100 µM | > 100 µM | > 100 µM | – | – | – | – | – | – | – | – | – | – | – |
| CCN(CC)CCCC(C)Nc1cnc(C(=O)Nc2cccc3ccc(OC)nc23)cn1 (stereo unspecified) | – | 3.52 µM | 3.21 µM | 25.8 µM | 3.72 µM | – | 3.68 µM | 3.95 µM | 3.24 µM | – | 1.81 µM | 1.79 µM | 11.2 µM | 1.77 µM | – | 1.85 µM | 1.85 µM | 1.77 µM |
| CCCS(=O)(=O)/C(=C(\c1ccc(Br)cc1)S(=O)(=O)CCC)c1ccc(Br)cc1 | > 10 µM | > 10 µM | > 10 µM | > 10 µM | > 10 µM | > 10 µM | > 10 µM | – | – | – | – | – | – | – | – | – | – | – |
| COC(=O)C(=Cc1cc(OC)c(OC)c(OC)c1-c1cc2c(cc1C(C)=O)OCO2)C(=O)OC | 69 µM | 66.4 µM | 88.2 µM | 133 µM | 58.8 µM | 65.9 µM | 61.7 µM | – | – | – | – | – | – | – | – | – | – | – |
| COc1ccc(-n2cc(-c3cc(OC)c(OC)c(OC)c3)[nH]c2=O)cc1Cl | – | > 100 µM | > 100 µM | > 100 µM | > 100 µM | – | > 100 µM | > 100 µM | > 100 µM | – | 37.7 µM | 35 µM | 40.8 µM | > 100 µM | – | > 100 µM | > 100 µM | > 100 µM |
